# Assay results from paper PMC5773487, “Harnessing insulin- and leptin-induced oxidation of PTP1B for therapeutic development” (Nature Communications, 2018).
# “Also recorded” adds a separate entry of the source.
# Legend:
# [1] = biological target: T1, K36A/K41A PTP1B-OX mutant (Homo sapiens, UniProt P18031, K36A/K41A); experiment: reduction and reactivation of oxidized PTP1B-K36A/K41A, DiFMUP, TCEP; format: biochemical
# T1 construct: PTP1B (1–321) and TCPTP (1–317) cloned in pET21b vector were used as templates; 6xHis (C); made in house; host or cells: E. coli BL21 (DE3)-RIL
# T1 sequence (P18031 1-321 K36A/K41A): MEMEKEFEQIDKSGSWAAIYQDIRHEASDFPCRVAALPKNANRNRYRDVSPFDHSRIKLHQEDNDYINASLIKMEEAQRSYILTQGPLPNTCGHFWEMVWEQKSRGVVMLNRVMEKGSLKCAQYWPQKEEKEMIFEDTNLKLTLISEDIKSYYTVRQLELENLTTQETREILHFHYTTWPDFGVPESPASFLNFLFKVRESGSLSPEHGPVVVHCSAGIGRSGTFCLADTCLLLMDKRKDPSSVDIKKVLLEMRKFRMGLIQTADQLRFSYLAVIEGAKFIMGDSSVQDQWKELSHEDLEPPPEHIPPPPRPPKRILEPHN
# Method: Fig. 5 Chelerythrine and scFv45 inhibit reactivation of PTP1B-OX by a similar mechanism. a Molecular modeling of chelerythrine binding to PTP1B-OX, with critical residues for the interaction highlighted on the right. b Oxidized PTP1B-wt (circle), PTP1B-K36A/K41A (square) were incubated with increasing concentrations of chelerythrine (0–10 mM) and phosphatase activity was measured using DiFMUP as substrate in the presence of the reducing agent TCEP (5 mM). c Oxidized PTP1B-wt (circle), PTP1B-mut1 (square), or PTP1B-mut2 (diamond) were incubated with increasing concentrations of chelerythrine (0–10 mM) and phosphatase activity was measured using DiFMUP as substrate in the presence of the reducing agent TCEP (5 mM). Individual data points represent the mean obtained from three separate experiments (n = 3; b, c). d Overlay of crystal structures of the reduced (blue) and oxidized (gray) form of PTP1B.
# PTP1B-OX = biological target: T2, PTP1B-OX (Homo sapiens, UniProt P18031); experiment: displacement assay of scFv antibodies from PTP1B-OX; format: binding; conditions: chelerythrine 0–20 μM
# T2 construct: Purified PTP1B (1–321) (100 nM) was mixed with increasing concentrations of H2O2; 6xHis (C); made in house; host or cells: E. coli BL21 (DE3)-RIL
# T2 sequence (P18031 1-321): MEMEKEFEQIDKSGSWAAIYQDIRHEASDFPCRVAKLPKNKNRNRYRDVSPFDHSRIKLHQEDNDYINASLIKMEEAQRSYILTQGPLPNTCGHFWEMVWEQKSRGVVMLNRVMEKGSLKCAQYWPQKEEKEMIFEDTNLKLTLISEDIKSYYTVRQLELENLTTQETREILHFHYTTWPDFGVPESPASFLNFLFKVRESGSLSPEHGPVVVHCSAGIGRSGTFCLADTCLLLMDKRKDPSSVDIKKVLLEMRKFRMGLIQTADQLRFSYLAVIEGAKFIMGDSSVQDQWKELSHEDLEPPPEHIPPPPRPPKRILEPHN
# Method: To test whether there was overlap in the binding site for chelerythrine and scFv antibodies that stabilized PTP1B-OX, we performed an in vitro competition binding assay using purified components. […] We focused on scFv106 and scFv67. Purified PTP1B (50 nM) was reversibly oxidized with 250 µM H2O2 followed by a buffer exchange to remove excess H2O2. Increasing concentration of purified scFv antibody (0–10 µM) was incubated with oxidized proteins in binding buffer (20 mM HEPES pH 7.4, 300 mM NaCl, 0.05% BSA, 0.05% Tween-20) for 2 h at 4 °C. Anti-HA agarose (Roche, 50% slurry equilibrated in the binding buffer) was added and incubated for 1 h at 4 °C. Protein complexes bound to anti-HA beads were precipitated and washed three times; first with lysis buffer followed by two more washes with wash buffer (25 mM HEPES pH 7.4, 100 mM NaCl, 0.05% BSA, 0.05% Tween-20, and protease inhibitors). The protein complex was incubated with varying concentrations of chelerythrine (0–20 µM) for 2 h at 4 °C, following which the beads were washed as described above. The complexes were resolved by SDS-PAGE and analyzed by immunoblotting.
# PKC = conditions: called into question by refs 39, 40; cited from earlier work
# [2] = biological target: T3, reversibly oxidized PTP1B-mut2 (L37F/K39E/K41R) (Homo sapiens, UniProt P18031, K39E/K41R/L37F); experiment: in vitro binding assay (anti-HA co-immunoprecipitation)
# T3 construct: PTP1B (1–321) and TCPTP (1–317) cloned in pET21b vector were used as templates; 6xHis (C); made in house; host or cells: E. coli BL21 (DE3)-RIL
# T3 sequence (P18031 1-321 L37F/K39E/K41R): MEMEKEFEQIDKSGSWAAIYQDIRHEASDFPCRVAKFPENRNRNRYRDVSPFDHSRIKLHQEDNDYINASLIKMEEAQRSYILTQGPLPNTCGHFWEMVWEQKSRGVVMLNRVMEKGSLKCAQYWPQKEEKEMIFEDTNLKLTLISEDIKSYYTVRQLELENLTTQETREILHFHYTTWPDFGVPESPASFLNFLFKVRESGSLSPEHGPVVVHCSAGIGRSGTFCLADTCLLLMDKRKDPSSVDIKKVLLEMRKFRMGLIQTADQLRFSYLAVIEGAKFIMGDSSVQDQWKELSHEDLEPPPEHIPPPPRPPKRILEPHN
# Method: Purified proteins (wt or mutant form of PTP1B or TCPTP (50 nM)) were reversibly oxidized with […] H2O2 followed by a buffer exchange using 0.5 mL Zeba spin desalting columns 7K MWCO (Thermo Fisher Scientific) to remove H2O2. Increasing concentration of purified HA-tagged scFv45 (0–10 µM) was incubated with oxidized proteins in binding buffer (20 mM HEPES, pH 7.4, 300 mM NaCl, 0.05% BSA, 0.05% Tween-20) for 2 h at 4 °C. Anti-HA agarose (Roche, 50% slurry equilibrated in the binding buffer) was added and incubated for 1 h at 4 °C. Protein complexes bound to anti-HA beads were immunoprecipitated and washed three times; first with lysis buffer followed by two more washes with wash buffer (25 mM HEPES, 100 mM NaCl pH 7.4, 0.05% BSA, 0.05% Tween-20, and protease inhibitors). The complexes were separated by SDS-PAGE and analyzed by immunoblotting.
# TCPTP = test system: TCPTP; design: method as in PMID 21962515; conditions: oxidized or reduced states; cited from earlier work
binding to reversibly oxidized PTP1B-mut2 [2],Molecule,"IC50 ([1]; TCEP 5 mM, DiFMUP, read-out: IC50 against K36A/K41A PTP1B-OX mutant) [µM]",inhibition of PTP1B-OX relative to K36AK41A PTP1B-OX ([1]; reviewer's summary in peer review file) [fold],competition with scFv106 for binding to PTP1B-OX (PTP1B-OX),inhibition of PKC (PKC),binding to TCPTP (TCPTP)
,COc1ccc2c(c[n+](C)c3c4cc5c(cc4ccc23)OCO5)c1OC [chelerythrine],75,15,competed,inhibitor of PKC,
did not bind; also recorded: abrogated,"scFv45: recombinant conformation-sensor single-chain variable fragment antibody recognizing oxidized PTP1B (antibody, V domains shown) VH: TVTLDESGGGLQAPGGALSLVCKASGFTFSSYDMGWIRQAPGKGLEYVAGITDNGRYASYGSAVDGRATISRDNGQSSVRLQLNNLRAEDTGTYYCARDDGSGWTGNSIDAWGHGTEVIVSE VL: ALTQPSSVSANPGGTVKITCSGSSSAYGYGWYQQKSPGSAPVTVIYNNNKRPSNIPSRFSGSKSGSTGTLTITGVQAEDEAVYFCGSEDSSTDAIFGAGTTLTVL",,,,,does not bind
